Nine compounds from PubChem BioAssay (NCI) can be followed below.

Among the test systems are SN12C renal; SR leukemia; MOLT-4 leukemia; OVCAR-4 ovarian; CCRF-CEM leukemia; U251 CNS; OVCAR-3 ovarian; PC-3 prostate; SNB-75 CNS; NCI-H522 lung; HS 578T breast; NCI-H460 lung; K-562 leukemia; BT-549 breast; LOX IMVI melanoma; IGROV1 ovarian; SW-620 colon; MDA-N; NCI/ADR-RES ovarian.
Holding throughout (assay): growth of human tumour cells (NCI), 48 h

Each structure is given as a SMILES string.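 Assay format: 96-well plates, 48-hour exposure. TGI denotes the concentration required for complete inhibition of growth.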 Bounds are passed on as bounds.

Turning to `CN(C)c1ccc(C2ON=C(c3ccccc3)N2C23CC4CC(CC(C4)C2)C3)cc1` (stereo unspecified), the TGI with SN12C renal, in the assay on SR leukemia, in the assay on MOLT-4 leukemia, in the assay with OVCAR-4 ovarian, in the assay on CCRF-CEM leukemia and with U251 CNS was more than 10 µM in each case. Besides, the TGI with OVCAR-3 ovarian, in the assay with PC-3 prostate, with SNB-75 CNS, with NCI-H522 lung, in the assay on HS 578T breast and in the assay with NCI-H460 lung was more than 10 µM in each case. Further, the TGI in the assay on K-562 leukemia, in the assay on BT-549 breast, in the assay with LOX IMVI melanoma, in the assay on IGROV1 ovarian, in the assay on SW-620 colon and with MDA-N was more than 10 µM throughout. In the assay with NCI/ADR-RES ovarian, this compound had a TGI of more than 10 µM.

As to `O=C(CN(c1ccc(S(=O)(=O)O)cc1)c1ccc(S(=O)(=O)O)cc1)Nn1cnc2ccc(S(=O)(=O)N(c3ccc(S(=O)(=O)O)cc3)c3ccc(S(=O)(=O)O)cc3)cc2c1=O`, the TGI with SN12C renal, with SR leukemia, in the assay on MOLT-4 leukemia, with OVCAR-4 ovarian, in the assay with CCRF-CEM leukemia and in the assay with U251 CNS was more than 100 µM each time. In addition, the TGI in the assay with OVCAR-3 ovarian, with PC-3 prostate, in the assay with SNB-75 CNS, in the assay on NCI-H522 lung, with HS 578T breast and in the assay with NCI-H460 lung was more than 100 µM throughout. The TGI in the assay on K-562 leukemia, in the assay on BT-549 breast, in the assay on LOX IMVI melanoma, with IGROV1 ovarian, in the assay with SW-620 colon and in the assay with MDA-N was more than 100 µM throughout. This compound also came in with a TGI in the assay on NCI/ADR-RES ovarian of more than 100 µM.

In the case of `Oc1ccc(-c2cn3cc(C(F)(F)F)ccc3n2)cc1`, the TGI in the assay on SN12C renal, in the assay on SR leukemia, in the assay on MOLT-4 leukemia, in the assay on OVCAR-4 ovarian, in the assay with CCRF-CEM leukemia and in the assay on U251 CNS was more than 100 µM each time. Moreover, the TGI was more than 100 µM in the assay on OVCAR-3 ovarian; more than 100 µM in the assay on PC-3 prostate; more than 100 µM in the assay on SNB-75 CNS; 88 µM in the assay on NCI-H522 lung; more than 100 µM with HS 578T breast; more than 100 µM in the assay with NCI-H460 lung. The TGI in the assay on K-562 leukemia, with BT-549 breast, with LOX IMVI melanoma, with IGROV1 ovarian, in the assay with SW-620 colon and in the assay with MDA-N was more than 100 µM in each case. The compound also returned a TGI with NCI/ADR-RES ovarian of more than 100 µM.

For the compound `COC1(CC[C@H](C)COC2OC(CO)C(O)C(O)C2O)O[C@H]2C[C@H]3[C@@H]4CC=C5C[C@@H](OC6OC(CO)C(O)C(OC7OC(CO)C(O)C(O)C7O)C6OC6OC(C)C(O)C(O)C6O)CC[C@]5(C)[C@H]4CC[C@]3(C)[C@H]2[C@@H]1C` (stereo partly specified), the TGI in the assay on SN12C renal is more than 31.1 µM; in the assay on SR leukemia, more than 100 µM; in the assay with MOLT-4 leukemia it was more than 27.3 µM; in the assay with OVCAR-4 ovarian, 14.9 µM; in the assay on CCRF-CEM leukemia, more than 32.9 µM; with U251 CNS, 4.02 µM. The TGI turned out to be 33.1 µM with OVCAR-3 ovarian; 16.6 µM in the assay with PC-3 prostate; 7.25 µM in the assay with SNB-75 CNS; 7.41 µM in the assay on NCI-H522 lung; 24.6 µM in the assay with HS 578T breast; 11.6 µM in the assay on NCI-H460 lung. The TGI in the assay with K-562 leukemia was more than 47.9 µM; in the assay on BT-549 breast, 22.5 µM; with LOX IMVI melanoma, 6.06 µM; in the assay on IGROV1 ovarian, 11.8 µM; with SW-620 colon, 5.87 µM; in the assay on MDA-N, 27 µM. In addition, the TGI in the assay with NCI/ADR-RES ovarian stood at 25.7 µM.

Turning to `O=C1C(Cl)=C(N2CCN(c3ccccn3)CC2)C(=O)c2ncccc21`, the TGI with SN12C renal was 7 µM; with SR leukemia it was 3.2 µM; in the assay on MOLT-4 leukemia it was 4.09 µM; in the assay on OVCAR-4 ovarian, 3.33 µM; with CCRF-CEM leukemia, 3.11 µM; in the assay with U251 CNS, 15.2 µM. Further, the TGI amounted to 3.21 µM in the assay on OVCAR-3 ovarian; 7.52 µM with PC-3 prostate; 19.8 µM in the assay with SNB-75 CNS; 2.83 µM with NCI-H522 lung; 5.95 µM in the assay with HS 578T breast; 13.4 µM in the assay on NCI-H460 lung. For the same compound, the TGI in the assay on K-562 leukemia was determined as 5.78 µM; in the assay with BT-549 breast, 4.63 µM; with LOX IMVI melanoma, 3.59 µM; with IGROV1 ovarian it was 6.63 µM; with SW-620 colon, 3.79 µM; in the assay on MDA-N it was 3.51 µM. In the assay with NCI/ADR-RES ovarian, this compound registered a TGI of 7.44 µM.

With `O=C(CCOS(=O)(=O)CF)N1CCN(C(=O)CCOS(=O)(=O)CF)CC1`, the TGI is more than 100 µM in the assay with SN12C renal; more than 100 µM in the assay on SR leukemia; 36.3 µM in the assay with MOLT-4 leukemia; more than 100 µM in the assay with OVCAR-4 ovarian; more than 87.9 µM in the assay with CCRF-CEM leukemia; more than 100 µM with U251 CNS. The TGI was more than 100 µM in the assay with OVCAR-3 ovarian; more than 100 µM in the assay with PC-3 prostate; more than 56.7 µM with SNB-75 CNS; more than 90.1 µM in the assay on NCI-H522 lung; more than 100 µM in the assay on HS 578T breast; more than 100 µM in the assay on NCI-H460 lung. The TGI in the assay on K-562 leukemia, in the assay with BT-549 breast, in the assay on LOX IMVI melanoma, with IGROV1 ovarian, in the assay on SW-620 colon and in the assay with MDA-N was more than 100 µM throughout. In the assay with NCI/ADR-RES ovarian, this compound displayed a TGI of more than 100 µM.

Consider `CN(C)Cc1cc(N=Nc2ccc(Cl)cc2)ccc1O`, for which the TGI in the assay on SN12C renal was determined as 33.1 µM; in the assay on SR leukemia, 39.8 µM; with MOLT-4 leukemia, 31.8 µM; in the assay with OVCAR-4 ovarian, 45.7 µM; in the assay with CCRF-CEM leukemia, 36.7 µM; in the assay with U251 CNS, 31.1 µM. The TGI was 24.2 µM in the assay on OVCAR-3 ovarian; 30.3 µM with PC-3 prostate; 28.8 µM in the assay on SNB-75 CNS; 26.3 µM in the assay with NCI-H522 lung; 31.3 µM with HS 578T breast; 26.7 µM in the assay with NCI-H460 lung. The TGI in the assay on K-562 leukemia is 35.2 µM; in the assay with BT-549 breast, 26.8 µM; in the assay on LOX IMVI melanoma, 23.5 µM; in the assay on IGROV1 ovarian, 32.3 µM; with SW-620 colon, 30.7 µM; in the assay with MDA-N, 42.9 µM. For the same compound, the TGI in the assay with NCI/ADR-RES ovarian was 33.4 µM.

Regarding `CCC1=NC(C(F)(F)F)(C(F)(F)F)N=C(/N=C(/N)N(C)C(C(C)C)P(=O)(OC(C)C)OC(C)C)O1` (stereo unspecified), the TGI in the assay with SN12C renal, with SR leukemia, with MOLT-4 leukemia, in the assay on OVCAR-4 ovarian, with CCRF-CEM leukemia and in the assay on U251 CNS was more than 100 µM each time. In addition, the TGI with OVCAR-3 ovarian, in the assay with PC-3 prostate, in the assay on SNB-75 CNS, in the assay with NCI-H522 lung, in the assay on HS 578T breast and in the assay with NCI-H460 lung was more than 100 µM throughout. The TGI in the assay with K-562 leukemia, in the assay with BT-549 breast, in the assay with LOX IMVI melanoma, in the assay on IGROV1 ovarian, in the assay on SW-620 colon and in the assay on MDA-N was more than 100 µM in each case. This compound also yielded a TGI with NCI/ADR-RES ovarian of more than 100 µM.

For `O=[N+]([O-])c1nccn1CCCNCCCn1ccnc1[N+](=O)[O-]`, the TGI in the assay on SN12C renal, in the assay with SR leukemia, in the assay with MOLT-4 leukemia, in the assay with OVCAR-4 ovarian, with CCRF-CEM leukemia and with U251 CNS was more than 100 µM each time. Besides, the TGI with OVCAR-3 ovarian, with PC-3 prostate, with SNB-75 CNS, with NCI-H522 lung, with HS 578T breast and with NCI-H460 lung was more than 100 µM in each case. For the same compound, the TGI with K-562 leukemia, with BT-549 breast, in the assay with LOX IMVI melanoma, in the assay on IGROV1 ovarian, in the assay with SW-620 colon and in the assay with MDA-N was more than 100 µM each time. Further, the TGI in the assay on NCI/ADR-RES ovarian was more than 100 µM.
